Experimental data reported in article PMC10206524 (European journal of medicinal chemistry, 2022).

Legend:
Assay type in all cases: biochemical
human SIRT3 = target: T1, human SIRT3 (Homo sapiens, UniProt Q9NTG7); assay: Fluorescence-based inhibition assay, SIRT3; details: at the highest concentration of 400 μM
T1 sequence (Q9NTG7 1-399): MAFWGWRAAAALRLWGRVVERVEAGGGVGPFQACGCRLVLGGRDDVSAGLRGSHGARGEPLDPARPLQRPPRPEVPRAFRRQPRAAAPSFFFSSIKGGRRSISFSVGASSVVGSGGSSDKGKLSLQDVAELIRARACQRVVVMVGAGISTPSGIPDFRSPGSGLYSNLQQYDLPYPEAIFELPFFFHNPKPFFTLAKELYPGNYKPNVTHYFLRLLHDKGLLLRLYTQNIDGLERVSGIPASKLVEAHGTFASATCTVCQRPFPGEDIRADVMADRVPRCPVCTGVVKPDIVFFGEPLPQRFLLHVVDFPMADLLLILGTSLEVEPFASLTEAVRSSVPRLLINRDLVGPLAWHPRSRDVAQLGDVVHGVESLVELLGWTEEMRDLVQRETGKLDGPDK

human SIRT1 = target: T2, human SIRT1 (Homo sapiens, UniProt Q96EB6); assay: Fluorescence-based inhibition assay, SIRT1; details: at the highest concentration of 400 μM
T2 sequence (Q96EB6 1-747): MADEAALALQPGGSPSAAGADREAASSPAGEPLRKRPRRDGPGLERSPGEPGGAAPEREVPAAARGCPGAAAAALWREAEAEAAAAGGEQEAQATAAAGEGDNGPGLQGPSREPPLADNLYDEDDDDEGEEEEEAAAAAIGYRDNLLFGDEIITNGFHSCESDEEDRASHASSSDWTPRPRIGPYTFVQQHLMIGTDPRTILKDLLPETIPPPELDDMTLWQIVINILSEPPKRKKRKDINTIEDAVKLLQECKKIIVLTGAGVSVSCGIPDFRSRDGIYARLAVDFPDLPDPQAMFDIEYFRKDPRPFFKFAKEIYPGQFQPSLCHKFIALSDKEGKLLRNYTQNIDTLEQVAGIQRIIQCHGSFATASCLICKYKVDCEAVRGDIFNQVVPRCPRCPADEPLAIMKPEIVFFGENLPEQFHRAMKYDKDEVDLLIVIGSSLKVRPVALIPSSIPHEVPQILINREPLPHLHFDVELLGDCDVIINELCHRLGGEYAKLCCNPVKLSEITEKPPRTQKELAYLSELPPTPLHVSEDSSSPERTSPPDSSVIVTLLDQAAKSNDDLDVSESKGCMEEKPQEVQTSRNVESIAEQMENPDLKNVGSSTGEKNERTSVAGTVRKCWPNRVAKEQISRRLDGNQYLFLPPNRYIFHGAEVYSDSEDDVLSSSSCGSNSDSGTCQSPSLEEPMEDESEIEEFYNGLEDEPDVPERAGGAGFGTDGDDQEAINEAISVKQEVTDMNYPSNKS

human SIRT2 = target: T3, human SIRT2 (Homo sapiens, UniProt Q8IXJ6); assay: Fluorescence-based inhibition assay, SIRT2; details: at the highest concentration of 400 μM
T3 sequence (Q8IXJ6 1-389): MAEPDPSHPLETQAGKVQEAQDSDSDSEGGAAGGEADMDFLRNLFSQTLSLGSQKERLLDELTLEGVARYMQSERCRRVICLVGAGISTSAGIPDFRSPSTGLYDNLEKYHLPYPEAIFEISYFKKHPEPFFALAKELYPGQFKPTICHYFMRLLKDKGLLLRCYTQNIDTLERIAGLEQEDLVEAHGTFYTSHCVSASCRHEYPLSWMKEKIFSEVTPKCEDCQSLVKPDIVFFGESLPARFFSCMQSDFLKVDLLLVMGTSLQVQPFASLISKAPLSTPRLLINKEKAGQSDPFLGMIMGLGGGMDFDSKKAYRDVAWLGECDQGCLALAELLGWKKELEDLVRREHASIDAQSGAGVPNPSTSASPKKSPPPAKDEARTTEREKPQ

human SIRT5 = target: T4, human SIRT5 (Homo sapiens, UniProt Q9NXA8); assay: Trypsin coupled fluorescence-based inhibition assay, SIRT5; details: for fold increased potency against SIRT5 in comparison with 11: more potent than hit 11
T4 sequence (Q9NXA8 37-310): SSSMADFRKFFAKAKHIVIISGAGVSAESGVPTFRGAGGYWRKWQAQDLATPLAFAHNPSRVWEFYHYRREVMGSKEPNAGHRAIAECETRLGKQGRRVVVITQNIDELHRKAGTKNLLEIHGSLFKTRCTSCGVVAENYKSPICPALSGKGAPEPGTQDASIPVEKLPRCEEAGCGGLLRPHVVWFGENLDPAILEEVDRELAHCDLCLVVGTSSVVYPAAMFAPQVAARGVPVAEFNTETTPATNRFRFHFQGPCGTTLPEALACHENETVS

| inhibition against SIRT3 (human SIRT3) | inhibition against SIRT1 (human SIRT1) | inhibition against SIRT2 (human SIRT2) | fold less potent than 11 against SIRT5 (human SIRT5; less potent than hit 11) | fold increased potency against SIRT5 in comparison with 11 (human SIRT5) [fold] | Structure (SMILES) |
| --- | --- | --- | --- | --- | --- |
| no inhibitions | no inhibitions | no inhibitions | – | – | CC(=O)Nc1ccc(-c2csc(Nc3ccc(C(=O)O)c(O)c3)n2)cc1 [Compound 11, 4-((4-(4-acetamidophenyl)thiazol-2-yl)amino)-2-hydroxybenzoic acid] |
| – | – | – | about 8 fold | – | CC(=O)Nc1ccc(-c2csc(Nc3ccc(C(=O)O)cc3)n2)cc1 [Compound 13, 4-((4-(4-acetamidophenyl)thiazol-2-yl)amino)benzoic acid] |
| no inhibition | no inhibition | no inhibition | – | 2 | CC(=O)Nc1ccc(-c2csc(NC(=S)Nc3ccc(C(=O)O)c(O)c3)n2)cc1 [Compound 14, 4-(3-(4-(4-acetamidophenyl)thiazol-2-yl)thioureido)-2-hydroxybenzoic acid] |
| – | – | – | – | 6 | O=C(O)c1ccc(NC(=S)Nc2nc(-c3ccc([N+](=O)[O-])cc3)cs2)cc1O [Compound 30, 2-hydroxy-4-(3-(4-(4-nitrophenyl)thiazol-2-yl)thioureido)benzoic acid] |
| no inhibition | no inhibition | no inhibition | – | 10 | O=C(O)c1ccc(NC(=S)Nc2nc(-c3ccc([N+](=O)[O-])c(S(=O)(=O)NCc4ccccc4)c3)cs2)cc1O [Compound 43, 4-(3-(4-(3-(N-benzylsulfamoyl)-4-nitrophenyl)thiazol-2-yl)thioureido)-2-hydroxybenzoic acid] |
